{"source": "ChEMBL document CHEMBL5055619", "about": "“Tetrahydrofuran-Based Transient Receptor Potential Ankyrin 1 (TRPA1) Antagonists: Ligand-Based Discovery, Activity in a Rodent Asthma Model, and Mechanism-of-Action via Cryogenic Electron Microscopy” (J Med Chem, 2021)", "key": {"[1]": {"assay": "Antagonist activity at human TRPA1 expressed in CHO cells assessed as cinnamaldehyde-induced calcium flux measured after 90 mins by FLIPR assay", "assay_type": "cell-based", "conditions": "1.5 h"}, "[2]": {"assay": "Apparent permeability across apical to basolateral side in MDCK cells", "assay_type": "ADME, cell-based, Canis lupus familiaris", "conditions": "dog, read-out: permeability"}, "[3]": {"assay": "Oral bioavailability in rat at 1 mg/kg", "assay_type": "ADME, organism-based", "conditions": "in vivo"}, "[4]": {"assay": "Metabolic stability in human liver microsomes assessed as clearance by LC/MS-MS analysis", "assay_type": "ADME, Microsome"}, "[5]": {"assay": "Antagonist activity at rat TRPA1 expressed in CHO cells assessed as cinnamaldehyde-induced calcium flux measured after 90 mins by FLIPR assay", "assay_type": "cell-based", "conditions": "1.5 h"}, "[6]": {"assay": "Inhibition of guinea pig TRPA1", "parameters": "species or system Cavia porcellus"}, "Cav1.2": {"target": "Cav1.2 (Homo sapiens, UniProt Q13936)", "assay": "Inhibition of Cav1.2 (unknown origin) at 10 uM"}, "Cytochrome P450 2D6": {"target": "Cytochrome P450 2D6 (Homo sapiens, UniProt P10635)", "sequence (P10635 whole entry)": "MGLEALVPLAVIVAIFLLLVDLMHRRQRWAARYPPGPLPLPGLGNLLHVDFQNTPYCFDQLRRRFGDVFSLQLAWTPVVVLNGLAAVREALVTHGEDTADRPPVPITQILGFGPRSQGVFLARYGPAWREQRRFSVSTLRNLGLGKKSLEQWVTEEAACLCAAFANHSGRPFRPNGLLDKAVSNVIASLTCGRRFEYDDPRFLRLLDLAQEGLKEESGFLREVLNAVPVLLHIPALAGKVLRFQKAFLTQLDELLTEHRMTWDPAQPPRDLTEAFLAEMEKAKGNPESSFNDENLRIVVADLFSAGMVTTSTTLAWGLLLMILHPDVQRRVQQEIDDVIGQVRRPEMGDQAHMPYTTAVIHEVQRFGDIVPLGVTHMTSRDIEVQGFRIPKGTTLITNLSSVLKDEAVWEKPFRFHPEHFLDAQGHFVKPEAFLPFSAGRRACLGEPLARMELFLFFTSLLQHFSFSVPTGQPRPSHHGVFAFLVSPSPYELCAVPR", "assay": "Inhibition of CYP2D6 (unknown origin)", "assay_type": "ADME"}, "[7]": {"target": "Transient receptor potential cation channel subfamily A member 1 (Rattus norvegicus) (UniProt Q6RI86)", "sequence (Q6RI86 whole entry)": "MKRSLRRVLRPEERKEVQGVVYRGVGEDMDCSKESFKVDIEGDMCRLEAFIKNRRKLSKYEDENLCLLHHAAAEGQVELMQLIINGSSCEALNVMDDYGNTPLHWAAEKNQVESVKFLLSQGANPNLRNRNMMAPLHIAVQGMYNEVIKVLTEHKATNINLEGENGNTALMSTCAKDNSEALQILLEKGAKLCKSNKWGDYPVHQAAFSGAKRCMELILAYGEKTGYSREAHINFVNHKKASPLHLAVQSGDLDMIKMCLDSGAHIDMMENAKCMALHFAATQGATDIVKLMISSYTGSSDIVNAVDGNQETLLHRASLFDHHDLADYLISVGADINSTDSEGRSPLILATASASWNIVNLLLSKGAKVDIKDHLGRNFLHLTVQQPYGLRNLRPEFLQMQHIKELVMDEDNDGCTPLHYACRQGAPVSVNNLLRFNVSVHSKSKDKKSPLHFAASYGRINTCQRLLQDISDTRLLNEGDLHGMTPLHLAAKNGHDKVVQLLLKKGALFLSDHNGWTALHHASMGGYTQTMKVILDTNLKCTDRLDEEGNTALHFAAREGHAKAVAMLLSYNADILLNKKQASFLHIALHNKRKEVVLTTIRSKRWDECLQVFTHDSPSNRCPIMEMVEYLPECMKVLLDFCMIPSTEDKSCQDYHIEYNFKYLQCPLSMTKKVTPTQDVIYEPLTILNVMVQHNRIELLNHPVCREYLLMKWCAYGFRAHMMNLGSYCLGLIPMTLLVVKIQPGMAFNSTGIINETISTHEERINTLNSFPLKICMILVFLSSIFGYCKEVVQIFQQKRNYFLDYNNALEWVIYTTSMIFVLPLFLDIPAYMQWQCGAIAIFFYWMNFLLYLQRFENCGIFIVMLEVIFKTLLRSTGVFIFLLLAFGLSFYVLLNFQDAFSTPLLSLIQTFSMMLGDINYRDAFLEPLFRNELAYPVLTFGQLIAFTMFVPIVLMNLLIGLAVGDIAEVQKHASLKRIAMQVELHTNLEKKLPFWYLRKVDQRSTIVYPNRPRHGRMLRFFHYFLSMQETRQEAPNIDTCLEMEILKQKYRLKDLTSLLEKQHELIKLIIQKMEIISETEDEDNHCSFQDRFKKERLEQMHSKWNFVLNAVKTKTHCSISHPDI", "assay": "In vivo antagonist activity at TRPA1 in AITC-induced rat pain model assessed as nocifensive behaviour at 7.95 ratio of free plasma concentration to IC50 for rat […]", "assay_type": "functional, organism-based", "conditions": "concentration not given here"}, "[8]": {"assay": "Protein binding in human plasma", "assay_type": "ADME, cell-free", "conditions": "read-out: PPB (converted)"}, "[9]": {"target": "Transient receptor potential cation channel subfamily M member 8 (Homo sapiens) (UniProt Q7Z2W7)", "sequence (Q7Z2W7 whole entry, looked up)": "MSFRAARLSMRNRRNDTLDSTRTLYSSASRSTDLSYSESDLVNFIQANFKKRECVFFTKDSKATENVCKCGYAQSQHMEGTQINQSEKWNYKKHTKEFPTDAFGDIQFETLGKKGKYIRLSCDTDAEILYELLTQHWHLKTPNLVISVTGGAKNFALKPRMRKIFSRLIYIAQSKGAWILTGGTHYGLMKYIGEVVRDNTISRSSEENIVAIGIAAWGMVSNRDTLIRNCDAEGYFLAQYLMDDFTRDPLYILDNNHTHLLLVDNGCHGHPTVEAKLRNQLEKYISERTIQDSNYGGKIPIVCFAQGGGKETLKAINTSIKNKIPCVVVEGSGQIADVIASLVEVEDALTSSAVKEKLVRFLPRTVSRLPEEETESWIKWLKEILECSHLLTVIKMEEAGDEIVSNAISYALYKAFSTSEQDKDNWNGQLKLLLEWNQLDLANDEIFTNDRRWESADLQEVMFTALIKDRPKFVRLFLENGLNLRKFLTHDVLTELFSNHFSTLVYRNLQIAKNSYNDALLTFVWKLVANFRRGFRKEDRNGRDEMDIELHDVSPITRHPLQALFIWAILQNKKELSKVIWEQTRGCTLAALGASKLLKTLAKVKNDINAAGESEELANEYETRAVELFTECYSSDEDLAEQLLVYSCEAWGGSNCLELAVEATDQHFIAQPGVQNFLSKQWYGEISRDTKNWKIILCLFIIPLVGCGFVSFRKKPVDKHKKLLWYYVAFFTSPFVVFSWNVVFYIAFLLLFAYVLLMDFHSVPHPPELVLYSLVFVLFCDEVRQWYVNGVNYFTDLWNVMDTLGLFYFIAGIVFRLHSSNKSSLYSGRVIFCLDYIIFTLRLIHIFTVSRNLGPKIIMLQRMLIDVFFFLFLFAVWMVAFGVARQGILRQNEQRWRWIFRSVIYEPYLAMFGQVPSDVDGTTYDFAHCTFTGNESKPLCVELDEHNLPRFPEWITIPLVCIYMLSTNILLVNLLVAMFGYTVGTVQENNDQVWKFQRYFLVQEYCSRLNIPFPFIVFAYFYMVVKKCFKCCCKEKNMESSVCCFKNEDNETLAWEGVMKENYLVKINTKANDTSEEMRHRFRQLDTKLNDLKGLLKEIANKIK", "assay": "Inhibition of human TRPM8 expressed in HEK293F cells assessed as inhibition of […]-induced calcium response up to 20 uM", "assay_type": "cell-based"}, "[10]": {"target": "Transient receptor potential cation channel subfamily A member 1 (Rattus norvegicus) (UniProt Q6RI86)", "assay": "In vivo antagonist activity at TRPA1 in AITC-induced rat pain model assessed as nocifensive behaviour at 2.18 ratio of free plasma concentration to IC50 for rat […]", "assay_type": "functional, organism-based", "conditions": "concentration not given here"}, "[11]": {"target": "Transient receptor potential cation channel subfamily A member 1 (Rattus norvegicus) (UniProt Q6RI86)", "assay": "In vivo antagonist activity at TRPA1 in AITC-induced rat pain model assessed as nocifensive behaviour at 24.47 ratio of free plasma concentration to IC50 for rat […]", "assay_type": "functional, organism-based", "conditions": "concentration not given here"}, "[12]": {"assay": "Protein binding in rat plasma", "assay_type": "ADME, cell-free", "conditions": "read-out: PPB (converted)"}, "[13]": {"target": "Transient receptor potential cation channel subfamily A member 1 (Rattus norvegicus) (UniProt Q6RI86)", "assay": "In vivo antagonist activity at TRPA1 in AITC-induced rat pain model assessed as nocifensive behaviour at 93.41 ratio of free plasma concentration to IC50 for rat […]", "assay_type": "functional, organism-based", "conditions": "concentration not given here"}, "Cytochrome P450 3A4": {"target": "Cytochrome P450 3A4 (Homo sapiens, UniProt P08684)", "assay": "Inhibition of CYP3A4 (unknown origin)", "assay_type": "ADME"}, "[14]": {"assay": "Metabolic stability in rat liver microsomes assessed as clearance by LC/MS-MS analysis", "assay_type": "ADME, Microsome"}, "hERG (KCNH2)": {"target": "hERG (KCNH2) (Homo sapiens, UniProt Q12809)", "assay": "Inhibition of human ERG at 10 uM"}, "[15]": {"assay": "Volume of distribution at steady stare in rat at 1 mg/kg", "assay_type": "ADME, organism-based", "conditions": "in vivo, read-out: Vdss"}, "[16]": {"assay": "Half life in rat at 1 mg/kg", "assay_type": "ADME, organism-based", "conditions": "in vivo"}, "[17]": {"assay": "Kinetic solubility of the compound", "assay_type": "physicochemical", "conditions": "read-out: Kinetic_solubility"}, "[18]": {"assay": "Metabolic stability in rat hepatocytes assessed as clearance", "assay_type": "ADME, cell-based, Hepatocyte"}, "Rattus norvegicus": {"species": "Rattus norvegicus", "assay": "Antinociceptive activity against AITC-induced rat pain model assessed as nocifensive behaviour by measuring unbound concentration", "assay_type": "functional, organism-based"}, "[19]": {"assay": "Clearance in rat at 1 mg/kg", "assay_type": "ADME, organism-based", "conditions": "in vivo"}, "[20]": {"assay": "Lipophilicity, logD of compound", "assay_type": "physicochemical", "conditions": "octanol/water"}, "Cavia porcellus": {"system": "Cavia porcellus", "assay": "Antiinflammatory activity against ovalbumin-induced po dosed Hartley guinea pig asthma model assessed as reduction in BAL fluid infiltrate in the airway treated 2 hrs before and 8 hrs after 28 days of ovalbumin challenge measured after 24 hrs", "assay_type": "functional, organism-based"}, "Nav1.5": {"target": "Nav1.5 (Homo sapiens, UniProt Q14524)", "sequence (Q14524 whole entry)": "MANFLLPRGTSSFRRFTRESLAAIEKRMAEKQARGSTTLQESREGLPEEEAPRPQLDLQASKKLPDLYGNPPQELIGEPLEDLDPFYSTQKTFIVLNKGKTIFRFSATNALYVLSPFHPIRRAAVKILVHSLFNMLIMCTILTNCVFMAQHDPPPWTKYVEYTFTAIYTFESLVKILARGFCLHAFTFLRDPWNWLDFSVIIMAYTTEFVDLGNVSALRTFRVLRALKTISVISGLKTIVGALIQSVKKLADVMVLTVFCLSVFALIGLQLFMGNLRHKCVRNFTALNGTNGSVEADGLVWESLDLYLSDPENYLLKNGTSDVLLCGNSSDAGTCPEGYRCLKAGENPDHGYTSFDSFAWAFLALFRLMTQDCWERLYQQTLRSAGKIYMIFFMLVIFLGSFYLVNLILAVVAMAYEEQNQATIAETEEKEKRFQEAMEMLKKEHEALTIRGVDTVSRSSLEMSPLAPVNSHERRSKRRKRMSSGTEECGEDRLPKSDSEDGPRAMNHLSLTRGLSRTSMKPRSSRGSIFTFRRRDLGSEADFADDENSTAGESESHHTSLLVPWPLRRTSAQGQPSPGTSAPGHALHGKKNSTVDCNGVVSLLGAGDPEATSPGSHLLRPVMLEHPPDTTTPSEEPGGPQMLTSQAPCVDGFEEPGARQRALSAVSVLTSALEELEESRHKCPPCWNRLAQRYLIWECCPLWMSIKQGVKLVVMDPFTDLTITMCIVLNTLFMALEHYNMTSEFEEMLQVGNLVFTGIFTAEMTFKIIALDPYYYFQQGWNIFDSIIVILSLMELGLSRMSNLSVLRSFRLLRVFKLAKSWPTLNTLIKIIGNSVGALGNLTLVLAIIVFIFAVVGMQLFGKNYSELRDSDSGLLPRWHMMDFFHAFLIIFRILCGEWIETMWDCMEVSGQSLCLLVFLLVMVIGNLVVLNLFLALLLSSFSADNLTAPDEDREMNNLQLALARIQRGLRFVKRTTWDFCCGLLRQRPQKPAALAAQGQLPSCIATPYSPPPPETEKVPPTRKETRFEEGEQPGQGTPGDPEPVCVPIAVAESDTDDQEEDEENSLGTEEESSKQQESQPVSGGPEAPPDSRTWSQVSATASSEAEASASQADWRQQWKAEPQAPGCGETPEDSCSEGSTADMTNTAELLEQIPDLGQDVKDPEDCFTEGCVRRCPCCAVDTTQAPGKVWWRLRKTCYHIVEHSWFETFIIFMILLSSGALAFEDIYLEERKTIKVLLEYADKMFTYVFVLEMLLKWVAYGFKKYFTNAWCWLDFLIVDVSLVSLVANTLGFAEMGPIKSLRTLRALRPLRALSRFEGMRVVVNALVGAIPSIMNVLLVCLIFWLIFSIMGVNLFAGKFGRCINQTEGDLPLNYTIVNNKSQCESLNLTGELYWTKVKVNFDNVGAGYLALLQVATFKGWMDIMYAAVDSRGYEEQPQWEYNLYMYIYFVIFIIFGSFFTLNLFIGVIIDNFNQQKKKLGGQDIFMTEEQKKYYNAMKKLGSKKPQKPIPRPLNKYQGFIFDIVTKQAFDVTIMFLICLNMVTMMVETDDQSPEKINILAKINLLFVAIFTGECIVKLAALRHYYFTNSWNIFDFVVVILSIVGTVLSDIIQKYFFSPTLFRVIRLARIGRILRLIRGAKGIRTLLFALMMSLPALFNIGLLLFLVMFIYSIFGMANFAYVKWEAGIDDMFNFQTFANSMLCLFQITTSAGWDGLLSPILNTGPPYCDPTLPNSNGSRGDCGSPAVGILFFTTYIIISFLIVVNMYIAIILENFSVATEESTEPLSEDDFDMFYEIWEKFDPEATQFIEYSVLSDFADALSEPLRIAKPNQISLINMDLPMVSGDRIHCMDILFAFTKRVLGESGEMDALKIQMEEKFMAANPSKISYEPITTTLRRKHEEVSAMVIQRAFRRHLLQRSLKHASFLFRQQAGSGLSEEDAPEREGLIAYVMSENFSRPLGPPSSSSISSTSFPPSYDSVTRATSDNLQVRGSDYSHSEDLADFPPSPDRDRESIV", "assay": "Inhibition of Nav1.5 (unknown origin) at 10 uM"}, "[21]": {"target": "T1, Short transient receptor potential channel 6 (Homo sapiens) (UniProt Q9Y210)", "T1 sequence (whole entry)": "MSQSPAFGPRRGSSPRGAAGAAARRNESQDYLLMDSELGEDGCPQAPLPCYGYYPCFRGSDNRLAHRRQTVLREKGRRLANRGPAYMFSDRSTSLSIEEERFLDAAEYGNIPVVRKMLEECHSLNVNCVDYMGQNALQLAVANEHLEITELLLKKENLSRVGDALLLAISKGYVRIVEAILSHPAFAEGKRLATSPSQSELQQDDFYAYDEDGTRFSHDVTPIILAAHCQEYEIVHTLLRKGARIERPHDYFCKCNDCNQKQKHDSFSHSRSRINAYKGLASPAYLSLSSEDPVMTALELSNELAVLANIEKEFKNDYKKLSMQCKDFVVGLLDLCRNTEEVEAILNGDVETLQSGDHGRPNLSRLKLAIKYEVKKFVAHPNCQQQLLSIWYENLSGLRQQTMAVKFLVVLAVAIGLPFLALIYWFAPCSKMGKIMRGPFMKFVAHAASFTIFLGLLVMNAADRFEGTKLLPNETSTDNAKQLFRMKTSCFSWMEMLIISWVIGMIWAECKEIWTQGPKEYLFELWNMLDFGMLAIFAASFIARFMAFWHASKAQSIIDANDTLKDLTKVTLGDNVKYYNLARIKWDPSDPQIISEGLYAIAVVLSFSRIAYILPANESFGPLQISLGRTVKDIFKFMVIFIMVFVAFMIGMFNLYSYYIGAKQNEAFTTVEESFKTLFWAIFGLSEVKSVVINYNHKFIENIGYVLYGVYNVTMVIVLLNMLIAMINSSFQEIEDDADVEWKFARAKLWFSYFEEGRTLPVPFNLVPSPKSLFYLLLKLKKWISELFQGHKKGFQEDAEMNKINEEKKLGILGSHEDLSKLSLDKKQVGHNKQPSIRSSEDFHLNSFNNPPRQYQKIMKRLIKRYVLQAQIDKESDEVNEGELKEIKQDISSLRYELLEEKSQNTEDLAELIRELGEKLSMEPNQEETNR", "assay": "Inhibition of human TRPC6 expressed in HEK293F cells assessed as inhibition of carbachol-induced calcium response up to 20 uM", "assay_type": "cell-based"}, "[22]": {"assay": "Unbound Volume of distribution at steady state in rat at 1 mg/kg", "assay_type": "ADME, organism-based", "conditions": "in vivo"}}, "note": "Active and inactive are the calls of the source. The calls are words filed in the database; no cut-off is given here.", "data": [{"compound": "Cn1cnc2ncn(Cc3nc([C@@H]4CO[C@@H](c5ccc(Cl)cc5)C4)no3)c(=O)c21", "values": [{"measurement": "IC50", "setting": "[1]", "result": 0.9, "unit": "nM"}, {"measurement": "Papp A→B", "setting": "[2]", "result": 16, "unit": "×10⁻⁶ cm/s"}, {"measurement": "bioavailability", "setting": "[3]", "result": 90, "unit": "%"}, {"measurement": "CLhep predicted", "setting": "[4]", "result": 5, "unit": "mL/min/kg"}, {"measurement": "IC50", "setting": "[5]", "result": 7.4, "unit": "nM"}, {"measurement": "IC50", "setting": "[6]", "result": 7.1, "unit": "nM"}, {"measurement": "inhibition at 10 µM", "setting": "Cav1.2", "result": "< 15", "unit": "%"}, {"measurement": "IC50", "setting": "Cytochrome P450 2D6", "result": "> 10000", "unit": "nM"}, {"measurement": "inhibition", "setting": "[7]", "result": 53, "unit": "%"}, {"measurement": "fraction unbound", "setting": "[8]", "result": 0.171}, {"measurement": "inhibition", "setting": "[9]", "result": "inactive"}, {"measurement": "inhibition", "setting": "[10]", "result": 30, "unit": "%"}, {"measurement": "inhibition", "setting": "[11]", "result": 80, "unit": "%"}, {"measurement": "fraction unbound", "setting": "[12]", "result": 0.246}, {"measurement": "inhibition", "setting": "[13]", "result": 100, "unit": "%"}, {"measurement": "IC50", "setting": "Cytochrome P450 3A4", "result": "> 10000", "unit": "nM"}, {"measurement": "CLhep predicted", "setting": "[14]", "result": 14, "unit": "mL/min/kg"}, {"measurement": "inhibition at 10 µM", "setting": "hERG (KCNH2)", "result": "< 15", "unit": "%"}, {"measurement": "Vd", "setting": "[15]", "result": 2.1, "unit": "L/kg"}, {"measurement": "half-life", "setting": "[16]", "result": 1.6, "unit": "h"}, {"measurement": "solubility kinetic", "setting": "[17]", "result": 43, "unit": "µM"}, {"measurement": "CLhep predicted", "setting": "[18]", "result": 29, "unit": "mL/min/kg"}, {"measurement": "EC50", "setting": "Rattus norvegicus", "result": 53, "unit": "nM"}, {"measurement": "clearance", "setting": "[19]", "result": 17, "unit": "mL/min/kg"}, {"measurement": "logD", "setting": "[20]", "result": 1.8}, {"measurement": "Activity", "setting": "Cavia porcellus", "result": "Dose-dependent effect"}, {"measurement": "inhibition at 10 µM", "setting": "Nav1.5", "result": "< 15", "unit": "%"}, {"measurement": "inhibition", "setting": "[21]", "result": "inactive"}, {"measurement": "Vduss", "setting": "[22]", "result": 8.54, "unit": "L/kg"}]}]}
